The results in this text go back to patent publication US11957680B2, “Pyruvate kinase activators for use in treating blood disorders” (Agios Pharmaceuticals, Inc., priority 2017, dated 2024).

Molecules are shown by their SMILES.

In experiment [1] the target is T1, wild type PKR (Homo sapiens, UniProt P30613). The experiment is described as follows: PKR (wild type) enzyme AC50 assay, LDH/NADH-coupled, absorbance at 340 nm. The class given is biochemical. Particulars: for AC50: Table 2, enzyme assay, read-out: PKR WT AC50; for EC50: Table 4, AC50, enzyme assay, read-out: PKR WT. The procedure, abridged: (§1)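 Human PKR, wild type or K410E/R510Q mutant (40-400 ng/well), preincubated 60 min at room temperature with compound (11-point 3-fold series from 100 μM, 1% DMSO) in Tris pH 7.5/KCl/MgCl2 buffer with PEP 0.1-0.5 mM, 180 μM NADH, LDH. ADP (0.2-1.65 mM) started the reaction; LDH-coupled NADH consumption followed at 340 nm.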

The target in another experiment is PKR K410E (Homo sapiens, UniProt P30613, K410E). Nature of the experiment: PKR mutant assay (K410E), AC50, LDH/NADH-coupled, absorbance at 340 nm. The following applies: for AC50: Table 2, enzyme assay. In kind it is biochemical. The procedure, abridged: as §1
A further experiment concerns the target PKR R510Q (Homo sapiens, UniProt P30613, R510Q). Nature of the experiment: PKR mutant assay (R510Q), AC50, LDH/NADH-coupled, absorbance at 340 nm. In kind it is biochemical. The following applies: for AC50: read-out: PK R510Q AC50; for EC50: read-out: PK R510Q. The procedure, abridged:
as §1

In experiment [2] the target is T1, wild type PKR. Nature of the experiment: Cell based ATP assay in purified red blood cells (Cell-Titer-Glo). On the set-up: endogenous in cells; host or cells: purified red blood cells from healthy volunteers. Particulars: overnight at 37° C., ATP levels. The procedure, abridged:
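RBCs from healthy human donors' K2EDTA blood were leukocyte-depleted by filtration and resuspended in AGAM (PBS, 1% glucose, adenine, mannitol). Cells at 1×10^7 cells/mL were incubated overnight at 37 °C with serially diluted compound at 0.1% DMSO, and ATP was read by Cell-Titer-Glo luminescence.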

Chain of PKR K410E (P30613 whole entry K410E): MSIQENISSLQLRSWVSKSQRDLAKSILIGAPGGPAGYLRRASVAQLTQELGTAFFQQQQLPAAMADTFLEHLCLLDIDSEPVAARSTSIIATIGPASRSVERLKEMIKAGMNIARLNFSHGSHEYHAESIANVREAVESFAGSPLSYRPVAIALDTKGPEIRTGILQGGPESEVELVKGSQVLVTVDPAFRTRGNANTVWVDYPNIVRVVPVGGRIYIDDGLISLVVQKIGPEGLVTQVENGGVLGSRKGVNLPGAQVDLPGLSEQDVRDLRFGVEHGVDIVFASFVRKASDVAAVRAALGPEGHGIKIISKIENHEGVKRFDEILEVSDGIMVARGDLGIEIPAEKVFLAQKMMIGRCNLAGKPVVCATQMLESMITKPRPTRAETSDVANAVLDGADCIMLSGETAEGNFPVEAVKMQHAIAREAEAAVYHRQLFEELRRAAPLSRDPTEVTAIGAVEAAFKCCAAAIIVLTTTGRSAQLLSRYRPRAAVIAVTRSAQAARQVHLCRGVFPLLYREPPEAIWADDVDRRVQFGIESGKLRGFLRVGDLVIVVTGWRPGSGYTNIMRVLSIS
T1 sequence (P30613 whole entry): as the sequence (P30613 whole entry K410E) above, with E410K counted along it
Chain of PKR R510Q (P30613 whole entry R510Q): as the sequence (P30613 whole entry K410E) above, with E410K, R510Q counted along it

In the case of `CC(=O)c1cccc(Cn2ncc3c4sc(C)nc4n(C)c3c2=O)c1` [Compound 56], the AC50 (commonly the concentration giving half of the maximal activity seen) was 0.301 to 0.8 µM on wild type PKR [1]; less than 0.3 µM on PKR K410E; less than 0.3 µM at PKR R510Q (Table 2, enzyme assay); more than 1 µM at wild type PKR [2] (Table 2, RBCs).
As for `Cn1c2nc(Cc3cn[nH]c3)sc2c2cnn(Cc3cccc4[nH]ncc34)c(=O)c21` [Compound 184], the AC50 is less than 0.3 µM at wild type PKR [1]; less than 0.3 µM on PKR K410E; less than 0.3 µM at PKR R510Q (Table 2, enzyme assay); not above 1 µM on wild type PKR [2] (Table 2, RBCs).
Regarding `Cn1c2nc(Cc3nnco3)sc2c2cnn(Cc3cccc4[nH]ncc34)c(=O)c21` [Compound 221], the EC50 at wild type PKR [1] is less than 0.3 µM; at PKR K410E (Table 4, AC50, enzyme assay) it was less than 0.3 µM; on PKR R510Q (Table 4, AC50, enzyme assay), 0.301 to 0.8 µM; on wild type PKR [2] (Table 4, AC50, RBCs), more than 1 µM.
For `COc1cccc(Cn2ncc3c4sc(C(C)O)nc4n(C)c3c2=O)c1` (stereo not drawn) [Compound 52], the AC50 at wild type PKR [1] was less than 0.3 µM; at PKR K410E, less than 0.3 µM; on PKR R510Q (Table 2, enzyme assay), less than 0.3 µM; on wild type PKR [2] (Table 2, RBCs), not above 1 µM.
`CCOC(=O)Cn1ncc2c3sc(C)nc3n(C)c2c1=O` [Compound 66]: the AC50 on wild type PKR [1] and at PKR K410E was more than 0.8 µM in each case. At PKR R510Q (Table 2, enzyme assay), the “PK R510Q AC50” value is recorded as “No Fit”. Moreover, the “Cell based ATP assay AC50” value at wild type PKR [2] (Table 2, RBCs) is given as “No Fit”.
With `Cn1c2nc(Cc3ccc(Cl)nc3)sc2c2cnn(Cc3cccc4[nH]ncc34)c(=O)c21` [Compound 150], the AC50 at wild type PKR [1] was more than 0.8 µM; on PKR K410E, more than 0.8 µM; on PKR R510Q (Table 2, enzyme assay), more than 0.8 µM; at wild type PKR [2] (Table 2, RBCs), more than 1 µM.
Regarding `Cn1c2nc(C(O)c3cc[nH]n3)sc2c2cnn(Cc3cccc4[nH]ncc34)c(=O)c21` (stereo not drawn) [Compound 148], the AC50 at wild type PKR [1] is less than 0.3 µM; on PKR K410E it was less than 0.3 µM; on PKR R510Q (Table 2, enzyme assay), less than 0.3 µM; at wild type PKR [2] (Table 2, RBCs), not above 1 µM.
As for `COc1cccc(Cn2ncc3c4sc([S+](C)[O-])nc4n(C)c3c2=O)c1` (stereo not drawn) [Compound 24], the AC50 at wild type PKR [1] is less than 0.3 µM; at PKR K410E, less than 0.3 µM; at PKR R510Q (Table 2, enzyme assay), less than 0.3 µM; on wild type PKR [2] (Table 2, RBCs), more than 1 µM.
With `O=c1c2c(cnn1Cc1ccccc1)c1sc(Cc3ccccn3)nc1n2-c1ccccc1` [Compound 405], the EC50 at wild type PKR [1] is more than 0.8 µM. Besides, on PKR K410E (Table 4, AC50, enzyme assay), the “PKR K410E” value is listed as “No Fit”. The “PK R510Q” value on PKR R510Q (Table 4, AC50, enzyme assay) was “No Fit”. The “Cell based ATP assay” value at wild type PKR [2] (Table 4, AC50, RBCs) is reported as “No Fit”.
Turning to `COc1ccc(Cc2nc3c(s2)c2cnn(Cc4cccc5[nH]ncc45)c(=O)c2n3C)cn1` [Compound 173], the AC50 is less than 0.3 µM on wild type PKR [1]; less than 0.3 µM at PKR K410E; less than 0.3 µM on PKR R510Q (Table 2, enzyme assay); not above 1 µM at wild type PKR [2] (Table 2, RBCs).
Regarding `CC(c1ccccc1)c1nc2c(s1)c1cnn(Cc3cccc4[nH]ncc34)c(=O)c1n2C` (stereo not drawn) [Compound 119], the AC50 was less than 0.3 µM at wild type PKR [1]; less than 0.3 µM on PKR K410E; less than 0.3 µM at PKR R510Q (Table 2, enzyme assay); not above 1 µM on wild type PKR [2] (Table 2, RBCs).
As for `Cc1nc2c(s1)c1cnn(Cc3ccc4cn[nH]c4c3)c(=O)c1n2C` [Compound 33], the AC50 at wild type PKR [1] is more than 0.8 µM; on PKR K410E, more than 0.8 µM; at PKR R510Q (Table 2, enzyme assay) it was 0.301 to 0.8 µM; on wild type PKR [2] (Table 2, RBCs), more than 1 µM.
`Cn1c2nc(Cc3cccc(C(N)=O)c3)sc2c2cnn(Cc3cccc4[nH]ncc34)c(=O)c21` [Compound 100]: the AC50 at wild type PKR [1] was less than 0.3 µM; at PKR K410E it was less than 0.3 µM; on PKR R510Q (Table 2, enzyme assay), less than 0.3 µM; at wild type PKR [2] (Table 2, RBCs) it was not above 1 µM.
For `Cn1c2nc(Cc3cc[nH]n3)sc2c2cnn(Cc3cccc4c3CNC4)c(=O)c21` [Compound 253], the EC50 was less than 0.3 µM on wild type PKR [1]; less than 0.3 µM at PKR K410E (Table 4, AC50, enzyme assay); less than 0.3 µM at PKR R510Q (Table 4, AC50, enzyme assay); not above 1 µM on wild type PKR [2] (Table 4, AC50, RBCs).
`Cn1c2nc([S+](C)[O-])sc2c2cnn(Cc3cccc4c3CCN4)c(=O)c21` (stereo not drawn) [Compound 79]: the AC50 at wild type PKR [1] is less than 0.3 µM; at PKR K410E, less than 0.3 µM; on PKR R510Q (Table 2, enzyme assay), less than 0.3 µM; at wild type PKR [2] (Table 2, RBCs) it was not above 1 µM.
For the compound `Cn1c2nc(Cc3cc[nH]c(=O)c3)sc2c2cnn(Cc3cccc4[nH]ncc34)c(=O)c21` [Compound 200], the EC50 on wild type PKR [1] is less than 0.3 µM; on PKR K410E (Table 4, AC50, enzyme assay), less than 0.3 µM; on PKR R510Q (Table 4, AC50, enzyme assay), more than 0.8 µM; on wild type PKR [2] (Table 4, AC50, RBCs) it was not above 1 µM.
With `Cc1nc2c(s1)c1cnn(Cc3cccc(F)n3)c(=O)c1n2C` [Compound 28], the AC50 at wild type PKR [1] is more than 0.8 µM; at PKR K410E, more than 0.8 µM; on PKR R510Q (Table 2, enzyme assay) it was more than 0.8 µM; on wild type PKR [2] (Table 2, RBCs), more than 1 µM.
With `Cn1c2nc(C(C(N)=O)c3ccccc3)sc2c2cnn(Cc3cccc4[nH]ncc34)c(=O)c21` (stereo not drawn) [Compound 127], the concentration at half-maximal activity (AC50) at wild type PKR [1] was less than 0.3 µM; on PKR K410E, less than 0.3 µM; at PKR R510Q (Table 2, enzyme assay), less than 0.3 µM; on wild type PKR [2] (Table 2, RBCs), not above 1 µM.
